Measurements from US3966715A, “Herbicidal agents” (Bayer Aktiengesellschaft, priority 1966, dated 1976).

Key:
Format in all cases: in vivo
Conditions in all cases: three weeks
Cotton = experiment: Pre-emergence test, cotton
Method: (§1) Solvent: 5 parts by weight acetone
(§2) 1 part by weight benzyloxypolyglycol ether
(§3) To produce a suitable preparation of the particular active compound, 1 part by weight of such active compound is mixed with the stated amount of solvent, the stated amount of emulsifier is then added and the resulting concentrate is thereafter diluted with water to the desired final concentration.
(§4) Seeds of the test plants are sown in normal soil and, after 24 hours, watered with the preparation of the given active compound. It is expedient to keep constant the amount of water per unit area. The concentration of the particular active compound in the preparation is of no importance, only the amount of active compound applied per unit area being decisive. After three weeks, the degree of damage to the test plants is determined and characterized by the values 0-5, which have the following meaning:
(§5) The procedure of Example 1 is repeated, and the particular active compounds tested, the amounts applied, and the results obtained can be seen from the following Table 1D: […]

Oats [1] = experiment: Pre-emergence test, oats
Method: as §1, §2, §3, §4, §5

Oats [2] = experiment: Post-emergence test, oats
Method: as §1, §2, §3
(§6) Test plants which have a height of about 5--15 cm. are sprayed with the preparation of the given active compound until just dew moist. After three weeks, the degree of damage to the plants is determined and characterized by the values 0-5, which have the following meaning:
(§7) The procedure of Example 2 is repeated, and the particular active compounds tested, and amounts applied, and the results obtained can be seen from the following Table 2E: […]

Wheat [3] = experiment: Pre-emergence test, wheat
Method: as §1, §2, §3, §4, §5

Wheat [4] = experiment: Post-emergence test, wheat
Method: as §1, §2, §3, §6, §7

Echinochloa = experiment: Post-emergence test, Echinochloa
Method: as §1, §2, §3, §6, §7

CSc1nnc(C(C)(C)C)c(=O)n1NC(O)C(Cl)(Cl)Cl (stereo not drawn) [Compound 192, 3-methylthio-4-(β-trichloro-α-hydroxy-ethyl)-amino-6-tert.-butyl-1,2,4-triazine-5-one]
degree of damage, Cotton (Cotton; 1.25 kg/hectare): 4-5 | degree of damage, Cotton (Cotton; 2.5 kg/hectare): 4-5 | degree of damage, Oats (Oats [1]; 1.25 kg/hectare): 4-5 | degree of damage, Oats (Oats [1]; 2.5 kg/hectare): 4-5 | degree of damage, Oats (Oats [2]; 2.4 Kg/hectare): 4-5

CCCc1nnc(SC)n(N)c1=O [Compound 153, 3-methylthio-4-amino-6-n-propyl-1,2,4-triazine-5-one]
degree of damage, Cotton (Cotton; 1.25 kg/hectare): 4-5 | degree of damage, Oats (Oats [1]; 1.25 kg/hectare): 4-5 | degree of damage, Oats (Oats [1]; 2.5 kg/hectare): 4-5 | degree of damage, Oats (Oats [2]; 2.4 Kg/hectare): 4-5

CCCNc1nnc(C(C)C)c(=O)n1N [Compound 178, 3-n-propylamino-4-amino-6-isopropyl-1,2,4-triazine-5-one]
degree of damage, Wheat (Wheat [3]; 5 kg/hectare): 2-3

CSc1nnc(C2CCCCC2)c(=O)n1N=C(C)C [Compound 224, 3-methylthio-4-(prop-2'-ylidene-amino)-6-cyclohexyl-1,2,4-triazine-5-one]
degree of damage, Wheat (Wheat [4]; 1.2 Kg/hectare): 4-5 | degree of damage, Wheat (Wheat [4]; 2.4 Kg/hectare): 4-5 | degree of damage, Oats (Oats [2]; 1.2 Kg/hectare): 4-5 | degree of damage, Wheat (Wheat [3]; 1.25 kg/hectare): 4-5

CSc1nnc(CCC(C)C)c(=O)n1N [Compound 23, 3-methylthio-4-amino-6-isopentyl-1,2,4-triazine-5-one]
degree of damage, Wheat (Wheat [4]; 2.4 Kg/hectare): 4-5

CNn1c(OC)nnc(-c2ccccc2)c1=O [Compound 234, 3-methoxy-4-methylamino-6-phenyl-1,2,4-triazine-5-one]
degree of damage, Oats (Oats [1]; 5 kg/hectare): 4-5

CCNc1nnc(-c2ccccc2)c(=O)n1N [Compound 7, 3-ethylamino-4-amino-6-phenyl-1,2,4-triazine-5-one]
degree of damage, Oats (Oats [1]; 2.5 kg/hectare): 4-5

CCCC=Nn1c(SC)nnc(C(C)C)c1=O [Compound 217, 3-methylthio-4-(n-butylidene-amino)-6-isopropyl-1,2,4-triazine-5-one]
degree of damage, Wheat (Wheat [3]; 1.25 kg/hectare): 4-5

CSc1nnc(C(C)(C)C)c(=O)n1N=CC(C)C [Compound 215, 3-methylthio-4-(isobutylidene-amino)-6-tert.-butyl-1,2,4-triazine-5-one]
degree of damage, Wheat (Wheat [4]; 1.2 Kg/hectare): 4-5

CCc1nnc(SC)n(N)c1=O [Compound 22, 3-methylthio-4-amino-6-ethyl-1,2,4-triazine-5-one]
degree of damage, Oats (Oats [2]; 1.2 Kg/hectare): 4-5 | degree of damage, Oats (Oats [2]; 2.4 Kg/hectare): 4-5 | degree of damage, Wheat (Wheat [3]; 5 kg/hectare): 4-5

CCC=Nn1c(SC)nnc(C(C)C)c1=O [Compound 216, 3-methylthio-4-(n-propylidene-amino)-6-isopropyl-1,2,4-triazine-5-one]
degree of damage, Wheat (Wheat [3]; 1.25 kg/hectare): 4-5

CCCCNc1nnc(C2CCCCC2)c(=O)n1N [Compound 182, 3-n-butylamino-4-amino-6-cyclohexyl-1,2,4-triazine-5-one]
degree of damage, Oats (Oats [1]; 40 Kg/hectare): 4-5 | degree of damage, Echinochloa (Echinochloa; 10 Kg/hectare): 4-5 | degree of damage, Wheat (Wheat [3]; 40 Kg/hectare): 4-5

CNc1nnc(C(C)(C)C)c(=O)n1N=C(C)C [Compound 232, 3-methylamino-4-(prop-2'-ylidene-amino)-6-tert.-butyl-1,2,4-triazine-5-one]
degree of damage, Oats (Oats [1]; 1.25 kg/hectare): 4-5 | degree of damage, Wheat (Wheat [4]; 1.2 Kg/hectare): 4-5

CSc1nnc(C(C)C)c(=O)n1N=Cc1ccc([N+](=O)[O-])cc1 [Compound 210, 3-methylthio-4-(4'-nitro-benzylidene-amino)-6-isopropyl-1,2,4-triazine-5-one]
degree of damage, Cotton (Cotton; 2.5 kg/hectare): 4-5 | degree of damage, Cotton (Cotton; 5 kg/hectare): 4-5 | degree of damage, Oats (Oats [1]; 2.5 kg/hectare): 4-5 | degree of damage, Oats (Oats [1]; 5 kg/hectare): 4-5

CSc1nnc(C(C)(C)C)c(=O)n1N=C(C)C [Compound 220, 3-methylthio-4-(prop-2'-ylidene-amino)-6-tert.-butyl-1,2,4-triazine-5-one]
degree of damage, Wheat (Wheat [3]; 1.25 kg/hectare): 4-5

CSc1nnc(C(C)C)c(=O)n1N=CC1CCCCC1 [Compound 197, 3-methylthio-4-(hexahydrobenzylidene-amino)-6-isopropyl-1,2,4-triazine-5-one]
degree of damage, Echinochloa (Echinochloa; 1.2 Kg/hectare): 4-5 | degree of damage, Wheat (Wheat [4]; 1.2 Kg/hectare): 4-5 | degree of damage, Wheat (Wheat [3]; 1.25 kg/hectare): 4-5

CSc1nnc(CC(C)C)c(=O)n1N [Compound 11, 3-methylthio-4-amino-6-isobutyl-1,2,4-triazine-5-one]
degree of damage, Wheat (Wheat [4]; 2.4 Kg/hectare): 4-5
